Biological target: T1, mitochondrial complex I (NADH dehydrogenase) of mites (Psoroptes ovis, UniProt A0A075XDS2)
T1 sequence (A0A075XDS2 1-300): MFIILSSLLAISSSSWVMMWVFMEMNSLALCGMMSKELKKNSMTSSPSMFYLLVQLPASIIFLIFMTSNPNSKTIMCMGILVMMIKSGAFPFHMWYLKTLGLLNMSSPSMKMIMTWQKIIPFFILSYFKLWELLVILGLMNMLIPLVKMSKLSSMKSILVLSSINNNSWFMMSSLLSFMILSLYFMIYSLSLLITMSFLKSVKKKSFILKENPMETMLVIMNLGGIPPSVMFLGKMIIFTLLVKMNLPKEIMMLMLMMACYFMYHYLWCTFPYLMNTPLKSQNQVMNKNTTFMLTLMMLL
Assay: colorimetric complex I assay at […] nm, isolated mite mitochondria
Assay type: biochemical
Settings: read-out: % inhibition at 20 ng/mL

Compound: C=CCc1ccc(O)c(OC)c1 [eugenol, 4-allyl-2-methoxyphenol]
- inhibition at 0.02 µg/mL: 92.6%

Source: publication PMC8655235 (Journal of Advanced Research, 2020)
